According to article PMC9701179, “New tricyclic systems as photosensitizers towards triple negative breast cancer cells” (Archives of Pharmacal Research, 2022):
Where two headings read alike, the source gives them in different places.

What was measured:
MDA-MB-231 cells [1] = assay: Intracellular ROS production (CM-H2DCFDA) under UVA; type: cell-based, human; settings: MDA-MB-231, 25 µM, 90 min, UVA 2.0 J/cm^2; antimycin 3 µM positive control
Description: The production of ROS was measured in MDA-MB-231 cells (10^4 per well) grown for 24 h in a 96-well plate in RPMI medium without phenol red (Merk, Germany). Cells were then washed with PBS and loaded with 10 μM 5-(and-6)-chloromethyl-2′,7′-dichlorodihydrofluorescein diacetate acetyl ester (CM–H2DCFDA) (Molecular Probes-Invitrogen, Eugene, OR) for 45 min, in the dark. Afterwards, cells were washed with PBS and incubated with tested compounds (25 µM) for 90 min and after that exposed to UVA light (2.0 J/cm^2). Fluorescence increase was estimated utilizing the wavelengths of 485 nm (excitation) and 527 nm (emission) in a VICTOR X3 (PerkinElmer, USA) plate reader. Antimycin (3 μM, Merk), a potent inhibitor of Complex III in the electron transport chain, was used as positive control.
ROS production under light (UVA, 2.0 J/cm^2) was evaluated in MDA-MB-231 cell samples treated with increasing concentrations of tested compounds or antimycin, a potent inhibitor of Complex III of mitochondria electron chain, used as a positive control under the same experimental conditions (Fig. 4).
Fig. 4 Cellular ROS production (A) and total thiol redox state (B). A Effect of UVA activated tested compounds (25 µM) or antimycin (3 µM) on hydrogen peroxide formation in MDA-MB-231 cancer cells. B Sulfhydryl content in MDA-MB-231 cancer cells incubated for 24 h with UVA activated tested compounds. The sulfhydryl group amount was determined by the DTNB assay. Error bars indicate S.D

MDA-MB-231 cells [2] = assay: Mitochondrial membrane potential (Mito-ID kit); type: cell-based, human; settings: MDA-MB-231, UVA 2.0 J/cm^2; CCCP positive control
Description: The ΔΨ was assayed using the Mito-ID® Membrane Potential Kit according to the manufacturer’s instructions (Enzo Life Sciences, Farmingdale, NY, USA) as previously described. Briefly, MDA-MB-231 cells (8 × 10^3 per well) were seeded in 96-well plates; after 24 h, cells were washed with PBS and loaded with Mito-ID Detection Reagent for 30 min at 37 °C in the dark. Afterwards, cells were incubated with increasing concentrations of tested compounds for 90 min and after that exposed to UVA light (2.0 J/cm^2). CCCP (Carbonyl cyanide 3-chlorophenyl-hydrazone) was used as positive control. Fluorescence intensity was estimated using a VICTOR X3 (PerkinElmer, USA) plate reader at 490 (excitation) and 590 nm (emission).
Induction of ROS production can in turn prompt the collapse of mitochondrial membrane potential as well as loss of mitochondrial integrity and functioning. […] MDA-MB-231 TNBC cells were treated with tested compounds upon UVA irradiation and the percentage of cells with hypopolarized mitochondrial membrane potential was determined fluorometrically by means of the Mito-ID® Membrane Potential Kit.
Fig. 5 Effects on mitochondrial membrane potential (A) and cell death induction (B) in human breast MDA-MB-231 cancer cells. A Cells were treated with 7h and 8e and stained with TMRM (10 nM). Fluorescence was estimated at 490 nm (excitation) and 590 nm (emission). Data are the means of five independent experiments. Error bars indicate S.D. * P < 0.05. B Cells were treated with concentrations of 7h and 8e equal to IC50 for 24 h and stained with the fluorescent dyes Hoechst 33342 and PI

MDA-MB-231 cells [3] = assay: MTT cytotoxicity/photocytotoxicity test on human TNBC MDA-MB-231 cells; type: cell-based; settings: Homo sapiens
Description: The irradiation device used for the irradiation of cell cultures during the assays was a black box equipped with two Philips UVA lamps with an irradiance of 17 mW cm^−2 and a centered emission peak at 365 nm; UVA irradiance was measured using a Waldmann Variocontrol radiometer, equipped with a UVA sensor. The box was maintained at room temperature inside with a fan and the multiwell plates were placed onto a water-refrigerated metal block.
Human triple negative (TNBC) breast MDA-MB-231 carcinoma cells were obtained from American Type Culture Collection (ATCC, Rockville, MD, USA). Human embryonic kidney HEK293 cells were obtained from the European Collection of Cell Cultures (ECACC, Salisbury, UK). Cell lines were maintained in the logarithmic phase at 37 °C in a 5% CO2 atmosphere using the following culture media containing 10% foetal calf serum (Euroclone, Milan, Italy), antibiotics (50 units/mL penicillin and 50 μg/mL streptomycin) and 2 mM l-glutamine: (i) RPMI-1640 medium (Euroclone, Milan, Italy) for MDA-MB-231 4 cells; (ii) DMEM (Euroclone, Milan, Italy) for HEK293 cells.
Cells (5–8 × 10^3 cells/well, dependent upon the growth characteristics of the cell line) were seeded in 96-well microplates in growth medium (100 μL). After 24 h, the medium was removed and replaced with a fresh one containing the compound to be studied at the appropriate concentration. Triplicate cultures were established for each treatment. For photocytotoxicity studies, after 1 h of incubation the medium was replaced with PBS and cells were treated with 2.0 J cm^−2 of UVA light. After irradiation, PBS was replaced with complete proliferation media. For pre-irradiation studies, instead, compounds in PBS were irradiated with 2.0 J cm^−2 of UVA light and subsequently cells were treated with pre-irradiated solutions. Following 24 h, each well was treated with 10 μL of a 5 mg/mL MTT saline solution, and following 5 h of incubation, 100 μL of a sodium dodecyl sulfate (SDS) solution in HCl 0.01 M were added. After an overnight incubation, cell growth inhibition was detected by measuring the absorbance of each well at 570 nm using a Bio-Rad 680 microplate reader. Mean absorbance for each drug dose was expressed as a percentage of the control untreated well absorbance and plotted against drug concentration. IC50 values, the drug concentrations that reduce the mean absorbance at 570 nm to 50% of those in the untreated control wells, were calculated by the four-parameter logistic (4-PL) model. Evaluation was based on means from at least four independent experiments.
The new synthetized pyrrolo[1,2-h][1,7]naphthyridinones 7 and pyrido[2,3-c]pyrrolo[1,2-a]azepinones 8 were screened for their cytotoxicity (in the dark) and photocitotoxicity (upon UVA light irradiation at 2.0 J/cm^2) profile on human TNBC cells, MDA-MB-231. The cytotoxicity/photocytotoxicity parameters, expressed in terms of IC50 values obtained by MTT test after 24 h of drug-exposure, are listed in Table 2.

CC(C)OC(=O)c1ccc2n1CCCc1cc(S(=O)(=O)c3ccccc3)c(=O)n(C)c1-2 [Compound 8d, Propan-2-yl 3-(benzenesulfonyl)-1-methyl-2-oxo-1,5,6,7-tetrahydro-2H-pyrido[2,3-c]pyrrolo[1,2-a]azepine-9-carboxylate]
Cellular ROS production (hydrogen peroxide formation) (MDA-MB-231 cells [1]): hardly effective in inducing any ROS basal level production increase | Cells with depolarized mitochondria (mitochondrial membrane potential) (MDA-MB-231 cells [2]): did not induce a substantial change in mitochondrial membrane potential | IC50 (MDA-MB-231 cells [3]; MDA-MB-231, in the dark, 1 h pre-treatment, recovered for total 24 h, read-out: Dark IC50 (µM) ± S.D): > 50 µM | IC50 (MDA-MB-231 cells [3]; light or radiation study, MDA-MB-231, 1 h pre-treatment, UVA 2.0 J/cm^2, recovered for total 24 h, read-out: UVA (2.0 J/cm^2) IC50 (µM) ± S.D): > 50 µM
